In assay [1] the target is Aldo-keto reductase family 1 member B1 (Bos taurus) (UniProt P16116). The assay can be described thus: In vitro % decrease of aldose reductase measured in isolated partially purified bovine lens preparations at 10e-7 M concentration.
The test system of assay [2] is Rattus norvegicus. In words: In vivo inhibition of galactitol accumulation in sciatic nerves of rat at 24 mg/kg/day; Not significant. In kind it is functional, organism-based. To be noted: Sciatic nerve.
Assay [3] has as its system Rattus norvegicus. The assay can be described thus: In vivo inhibition of galactitol accumulation in diaphragm of rat at 24 mg/kg/day. In kind it is functional.
Assay [4] addresses Aldo-keto reductase family 1 member B1 (Bos taurus) (UniProt P16116). In words: In vitro % decrease of aldose reductase was measured in isolated partially purified bovine lens preparations at 10e-7 M concentration; Not active.
The test system of assay [5] is Rattus norvegicus. In words: In vivo inhibition of galactitol accumulation in diaphragm of rat at 48 mg/kg/day; Not significant. In kind it is functional, organism-based.
In assay [6] the test system is Rattus norvegicus. The assay can be described thus: In vivo inhibition of galactitol accumulation in sciatic nerves of rat at 48 mg/kg/day; Not significant. To be noted: Sciatic nerve. In kind it is functional, organism-based.
Assay [7] addresses Aldo-keto reductase family 1 member B1 (Bos taurus) (UniProt P16116). In words: In vitro% decrease of aldose reductase was measured in isolated partially purified bovine lens preparations at 10e-7 M concentration.
The subject of assay [8] is Rattus norvegicus. In words: In vivo inhibition of galactitol accumulation in sciatic nerves of rat at 52 mg/kg/day; Not significant. In kind it is functional, organism-based. To be noted: Sciatic nerve.
For assay [9], the species on record is Rattus norvegicus. In words: In vitro inhibition of sorbitol accumulation was measured in rat sciatic nerves incubated in the presence of 50 mM glucose at 10e-5 M concentration. In kind it is functional, Sciatic nerve.
Assay [10] is filed under the species Rattus norvegicus. The assay can be described thus: In vitro inhibition of sorbitol accumulation was measured in rat sciatic nerves incubated in the presence of 50 mM glucose at 10e-6 M concentration. In kind it is functional, Sciatic nerve.
Assay [11] relates to Rattus norvegicus. In words: In vivo inhibition of galactitol accumulation in diaphragm of rat at 52 mg/kg/day; Not significant. In kind it is functional, organism-based.
For assay [12], the system named is Rattus norvegicus. The assay can be described thus: In vivo inhibition of galactitol accumulation in diaphragm of rat at 50 mg/kg/day. In kind it is functional.
Assay [13] deals with Rattus norvegicus. The assay can be described thus: In vivo inhibition of galactitol accumulation in sciatic nerves of rat at 50 mg/kg/day; Not significant. In kind it is functional, organism-based. To be noted: Sciatic nerve.
For assay [14], the system named is Rattus norvegicus. In words: In vivo inhibition of galactitol accumulation in sciatic nerves of rat at 24 mg/kg/day. In kind it is functional. To be noted: Sciatic nerve.
For assay [15], the system named is Rattus norvegicus. In words: In vivo inhibition of galactitol accumulation in diaphragm of rat at 50 mg/kg/day; Not significant. In kind it is functional, organism-based.
Assay [16] concerns Rattus norvegicus. In words: In vivo inhibition of galactitol accumulation in diaphragm of rat at 26 mg/kg/day. In kind it is functional.
Assay [17] deals with Rattus norvegicus. In words: In vivo inhibition of galactitol accumulation in sciatic nerves of rat at 26 mg/kg/day; Not significant. In kind it is functional, organism-based. To be noted: Sciatic nerve.
Assay [18] relates to Rattus norvegicus. The assay can be described thus: In vivo inhibition of galactitol accumulation in diaphragm of rat at 47 mg/kg/day; Not significant. In kind it is functional, organism-based.
In assay [19] the test system is Rattus norvegicus. The assay can be described thus: In vivo inhibition of galactitol accumulation in sciatic nerves of rat at 47 mg/kg/day; Not significant. In kind it is functional, organism-based. To be noted: Sciatic nerve.
Assay [20] concerns Rattus norvegicus. In words: In vivo inhibition of galactitol accumulation in diaphragm of rat at 48 mg/kg/day. In kind it is functional.
For assay [21], the system named is Rattus norvegicus. The assay can be described thus: In vivo inhibition of galactitol accumulation in sciatic nerves of rat at 48 mg/kg/day. In kind it is functional. To be noted: Sciatic nerve.
The test system of assay [22] is Rattus norvegicus. In words: In vivo inhibition of galactitol accumulation in sciatic nerves of rat at 10 mg/kg/day. In kind it is functional. To be noted: Sciatic nerve.
For assay [23], the system named is Rattus norvegicus. In words: In vivo inhibition of galactitol accumulation in diaphragm of rat at 10 mg/kg/day. In kind it is functional.
The test system of assay [24] is Rattus norvegicus. In words: In vivo inhibition of galactitol accumulation in diaphragm of rat at 49 mg/kg/day. In kind it is functional.
In assay [25] the test system is Rattus norvegicus. The assay can be described thus: In vivo inhibition of galactitol accumulation in sciatic nerves of rat at 49 mg/kg/day. To be noted: Sciatic nerve. In kind it is functional.

For 15 compounds, inhibition, inhibition in vivo and Inhibition results are on record in ChEMBL document CHEMBL1125860 (J Med Chem, 1991).

Activity calls are given as the source filed them. The rule behind the calls is not given here.

As to `COc1ccc2c(C(=S)N(C)CC(=O)O)c(Oc3ccccc3)ccc2c1C(F)(F)F`, in [1], the inhibition stood at 89%. In addition, in the assay with Rattus norvegicus [2], the inhibition result was “inactive”. Also, the inhibition in vivo at 24 mg/kg/day in the assay with Rattus norvegicus [3] worked out at 83%.

Regarding `COc1ccc2c(C(=O)N(C)CC(N)=O)c(C(C)(C)C)ccc2c1C(F)(F)F`, the inhibition result (in assay [4]; with Rattus norvegicus [5]; with Rattus norvegicus [6]) was “inactive” in each case.

As for `COc1ccc2c(C(=S)N(C)CC(=O)O)c(Cl)ccc2c1C(F)(F)F`, the inhibition in [1] worked out at 81%. The inhibition result in the assay with Rattus norvegicus [2] is “inactive”. Besides, in the assay with Rattus norvegicus [3], the inhibition in vivo at 24 mg/kg/day amounted to 90%.

In assay [7], `COc1ccc2c(C(=O)N(C)CC(=O)O)cc(Cc3ccc(Br)cc3F)cc2c1Br` registered an inhibition of 66%. For the same compound, the inhibition entry in the assay on Rattus norvegicus [8] and in the assay with Rattus norvegicus [11] was “inactive” throughout. The Inhibition in the assay filed under Rattus norvegicus [9] was 92%; in the assay filed under Rattus norvegicus [10], 63%.

In [1], `CCOC(=O)N(CC(=O)O)C(=O)c1c(Cl)ccc2c(C(F)(F)F)c(OC)ccc12` returned an inhibition of 79%. Besides, the inhibition in vivo at 50 mg/kg/day with Rattus norvegicus [12] was 47%. For the same compound, in the assay with Rattus norvegicus [13], the inhibition entry is “inactive”. The values for the Inhibition in the assay filed under Rattus norvegicus [9] and in the assay listed under Rattus norvegicus [10] were 79% and 54%, respectively.

For the compound `COc1ccc2c(C(=O)N(C)CC(N)=O)c(Cl)ccc2c1C(F)(F)F`, in [4], the inhibition result is “inactive”. Besides, the inhibition in vivo at 24 mg/kg/day in the assay on Rattus norvegicus [14] turned out to be 62%; in the assay on Rattus norvegicus [3], 53%.

Take `COc1ccc2c(C(=O)N(C)CC(=O)O)cc(-c3ccccc3)cc2c1C(F)(F)F`: the inhibition in assay [1] came to 63%. Further, the inhibition entry with Rattus norvegicus [15] and in the assay with Rattus norvegicus [13] was “inactive” throughout. Moreover, the results for the Inhibition in the assay listed under Rattus norvegicus [9] and in the assay filed under Rattus norvegicus [10] were 77% and 32%, respectively.

`COc1ccc2c(C(=S)N(C)CC(=O)O)c(OCc3ccccc3)ccc2c1C(F)(F)F` gave an inhibition in assay [1] of 84%. Moreover, the inhibition in vivo at 26 mg/kg/day in the assay with Rattus norvegicus [16] amounted to 80%. Besides, the inhibition result in the assay with Rattus norvegicus [17] is “inactive”.

In turn, `COc1ccc2c(C(=S)N(C)CC(=O)O)cc(Br)cc2c1Br` yielded an inhibition in assay [1] of 94%. In the assay with Rattus norvegicus [16], the inhibition in vivo at 26 mg/kg/day was found to be 86%. Moreover, the inhibition result in the assay with Rattus norvegicus [17] is “inactive”.

Take `COc1ccc2c(C(=O)N(C)CC(=O)O)ccc(F)c2c1C(F)(F)F`: the inhibition in [1] came out at 64%. This compound showed an inhibition in vivo at 26 mg/kg/day in the assay with Rattus norvegicus [16] of 15%. The inhibition result with Rattus norvegicus [17] was “inactive”.

Compound `CCOC(=O)N(CC(=O)O)C(=O)c1cc(Br)cc2c(Br)c(OC)ccc12` gave an inhibition in [1] of 84%. For the same compound, the inhibition result with Rattus norvegicus [18] and with Rattus norvegicus [19] was “inactive” throughout.

For `COC(=O)N(CC(=O)O)C(=O)c1cccc2c(C(F)(F)F)c(OC)ccc12`, the inhibition in vivo at 48 mg/kg/day in the assay on Rattus norvegicus [20] was determined as 54%; in the assay on Rattus norvegicus [21], 70%. Further, the inhibition in vivo at 10 mg/kg/day amounted to 86% with Rattus norvegicus [22] and 76% with Rattus norvegicus [23]. Moreover, the Inhibition in the assay filed under Rattus norvegicus [9] was determined as 58%.

Compound `COc1ccc2c(C(=O)N(C)CC(=O)O)c(SC)ccc2c1C(F)(F)F` showed an inhibition in [1] of 69%. The inhibition entry with Rattus norvegicus [15] and with Rattus norvegicus [13] was “inactive” each time. The Inhibition in the assay listed under Rattus norvegicus [9] is 60%; in the assay filed under Rattus norvegicus [10], 41%.

`COc1ccc2c(C(=S)N(C)CC(=O)O)cc(F)cc2c1Br`: the inhibition in assay [1] came out at 86%. This compound also gave an inhibition in vivo at 26 mg/kg/day in the assay with Rattus norvegicus [16] of 86%. Moreover, in the assay on Rattus norvegicus [17], the inhibition entry was “inactive”.

`COC(=O)N(CC(=O)O)C(=O)c1c(OC)ccc2c(C(F)(F)F)c(OC)ccc12` came in with an inhibition in assay [1] of 83%. Moreover, the values for the inhibition in vivo at 49 mg/kg/day with Rattus norvegicus [24] and with Rattus norvegicus [25] were 33% and 36%, respectively.
